The results in this text go back to ChEMBL document CHEMBL1287762, “Synthesis and biological evaluation of 3-[4-(amino/methylsulfonyl)phenyl]methylene-indolin-2-one derivatives as novel COX-1/2 and 5-LOX inhibitors” (Bioorg Med Chem Lett, 2010).

Molecules are shown by their SMILES. Structures can show the parent of a compound that is named as a salt.

The target in data set [1] is T1, Prostaglandin G/H synthase 2 (Oryctolagus cuniculus, UniProt O02768).
T1 sequence (O02768 whole entry): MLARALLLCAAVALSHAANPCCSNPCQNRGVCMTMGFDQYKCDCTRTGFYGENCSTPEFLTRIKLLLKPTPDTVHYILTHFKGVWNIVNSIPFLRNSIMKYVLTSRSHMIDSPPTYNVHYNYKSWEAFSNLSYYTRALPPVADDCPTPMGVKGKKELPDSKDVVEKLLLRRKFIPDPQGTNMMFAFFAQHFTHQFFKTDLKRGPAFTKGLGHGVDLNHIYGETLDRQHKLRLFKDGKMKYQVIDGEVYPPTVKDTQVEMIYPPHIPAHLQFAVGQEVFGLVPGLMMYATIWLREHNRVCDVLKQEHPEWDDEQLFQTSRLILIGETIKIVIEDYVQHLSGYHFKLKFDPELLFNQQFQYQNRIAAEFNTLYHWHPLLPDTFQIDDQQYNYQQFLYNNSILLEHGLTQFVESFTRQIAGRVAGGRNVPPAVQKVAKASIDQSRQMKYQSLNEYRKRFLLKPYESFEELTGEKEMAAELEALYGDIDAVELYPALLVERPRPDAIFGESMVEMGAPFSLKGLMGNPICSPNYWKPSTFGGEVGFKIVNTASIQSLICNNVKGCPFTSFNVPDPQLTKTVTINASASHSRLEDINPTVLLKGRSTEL
As to the kind of experiment: Inhibition of COX-2 in rabbit peripheral venous blood assessed as formation of 12-hydroxyheptadecatrienoic acid after 24 hrs in by HPLC presence of calcium ionophore […] and lipopolysaccharide. The data set is classed as tissue-based.

Data set [2] has as its target T2, Prostaglandin G/H synthase 1 (Oryctolagus cuniculus, UniProt O97554).
T2 sequence (O97554 whole entry): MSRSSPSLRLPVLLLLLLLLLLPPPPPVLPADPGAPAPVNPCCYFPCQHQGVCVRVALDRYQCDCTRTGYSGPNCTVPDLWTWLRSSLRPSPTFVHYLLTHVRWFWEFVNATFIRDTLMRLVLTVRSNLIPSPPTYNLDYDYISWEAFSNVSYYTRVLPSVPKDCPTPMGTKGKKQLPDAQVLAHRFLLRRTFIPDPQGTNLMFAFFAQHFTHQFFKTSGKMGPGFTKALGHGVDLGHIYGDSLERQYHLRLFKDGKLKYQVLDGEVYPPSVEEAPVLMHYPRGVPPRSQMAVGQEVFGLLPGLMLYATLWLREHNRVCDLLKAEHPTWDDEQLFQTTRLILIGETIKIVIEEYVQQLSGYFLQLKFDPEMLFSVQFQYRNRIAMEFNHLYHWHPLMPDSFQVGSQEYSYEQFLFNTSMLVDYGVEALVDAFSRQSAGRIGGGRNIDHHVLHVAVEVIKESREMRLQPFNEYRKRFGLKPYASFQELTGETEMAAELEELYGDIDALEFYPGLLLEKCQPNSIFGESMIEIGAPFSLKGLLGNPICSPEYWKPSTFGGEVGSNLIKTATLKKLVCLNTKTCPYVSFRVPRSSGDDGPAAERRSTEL
As to the kind of experiment: Inhibition of COX-1 in rabbit peripheral venous blood assessed as formation of 12-hydroxyheptadecatrienoic acid after 24 hrs by HPLC in presence of calcium ionophore A23187.

The nature of data set [3]: Inhibition of 5-LOX in rabbit peripheral venous blood assessed as formation of […] after 30 mins by HPLC. Format: tissue-based, Oryctolagus cuniculus.
Data set [4] deals with Rattus norvegicus. As to the kind of experiment: Antiinflammatory activity in Wistar rat assessed as inhibition of carrageenan-induced paw edema at 10.12 mg/kg, po administered 1 hr before carrageenan challenge measured at 1 hr by plethysmometer. Format: functional.
The test system of data set [5] is Rattus norvegicus. Description: Antiinflammatory activity in Wistar rat assessed as inhibition of carrageenan-induced paw edema at 10.12 mg/kg, po administered 1 hr before carrageenan challenge measured at 3 hrs by plethysmometer. The data set is classed as functional.
In data set [6] the test system is Rattus norvegicus. As to the kind of experiment: Antiinflammatory activity in Wistar rat assessed as inhibition of carrageenan-induced paw edema at 10.12 mg/kg, po administered 1 hr before carrageenan challenge measured at 6 hrs by plethysmometer. Format: functional.
For data set [7], the system named is Mus musculus. Description: Analgesic activity in BALB/c mouse assessed as inhibition of acetic acid-induced writhing response for 15 mins at 20.24 mg/kg, po. Format: functional. Conditions: 0.25 h.
Data set [8] has as its system Rattus norvegicus. As to the kind of experiment: Ulcerogenic effect in Wistar rat assessed as gastric ulcer area at 10.12 mg/kg, po administered for 7 days by microscopy. Format: toxicity, organism-based, Stomach. Also noted: dose 10.12 mg/kg, route oral. Conditions: in vivo, 168 h.
The species named for a further data set is Oryctolagus cuniculus. Description: Selectivity ratio, IC50 for COX-1in rabbit peripheral venous blood to IC50 for COX-2 in rabbit peripheral venous blood. Format: tissue-based.
In data set [9] the test system is Rattus norvegicus. As to the kind of experiment: Antiinflammatory activity in Wistar rat assessed as inhibition of carrageenan-induced paw edema at 10.15 mg/kg, po administered 1 hr before carrageenan challenge measured at 1 hr by plethysmometer. The data set is classed as functional.
The subject of data set [10] is Rattus norvegicus. Description: Antiinflammatory activity in Wistar rat assessed as inhibition of carrageenan-induced paw edema at 10.15 mg/kg, po administered 1 hr before carrageenan challenge measured at 3 hrs by plethysmometer. The data set is classed as functional.
Data set [11] relates to Rattus norvegicus. Description: Antiinflammatory activity in Wistar rat assessed as inhibition of carrageenan-induced paw edema at 10.15 mg/kg, po administered 1 hr before carrageenan challenge measured at 6 hrs by plethysmometer. The data set is classed as functional.
In data set [12] the test system is Mus musculus. Description: Analgesic activity in BALB/c mouse assessed as inhibition of acetic acid-induced writhing response for 15 mins at 20.30 mg/kg, po. Format: functional. The following applies: 0.25 h.
Data set [13] has as its system Rattus norvegicus. Description: Ulcerogenic effect in Wistar rat assessed as gastric ulcer area at 10.15 mg/kg, po administered for 7 days by microscopy. The data set is classed as toxicity, organism-based, Stomach. Also noted: dose 10.15 mg/kg, route oral. The following applies: in vivo, 168 h.

For `CS(=O)(=O)c1ccc(/C=C2/C(=O)Nc3ccc(Cl)cc32)cc1`, the IC50 in [1] was 3.82 µM; in data set [2], above 50 µM; in [3], above 50 µM. For the same molecule, the inhibition in vivo at 10.12 mg/kg in the data set on Rattus norvegicus [4] stood at 14.3%; in the data set with Rattus norvegicus [5], 15.7%; with Rattus norvegicus [6], 41.7%. For the same molecule, the inhibition in vivo at 20.24 mg/kg in the data set on Mus musculus [7] came out at 63.3%. Further, the Activity in the data set with Rattus norvegicus [8] is on record as 0.88 mm2.

For the molecule `NS(=O)(=O)c1ccc(/C=C2/C(=O)Nc3cc(Cl)ccc32)cc1`, the IC50 in data set [1], in data set [2] and in [3] was above 50 µM each time.

Regarding `Cc1ccc2c(c1)/C(=C\c1ccc(S(C)(=O)=O)cc1)C(=O)N2`, the IC50 in data set [1], in data set [2] and in data set [3] was above 50 µM in each case.

With `NS(=O)(=O)c1ccc(/C=C2/C(=O)Nc3ccc(Cl)cc32)cc1`, the values for the 50% inhibitory concentration (IC50) in data set [1], in data set [2] and in [3] were 3.31 µM, 0.16 µM and 3.37 µM, respectively. Further, in the data set listed under Oryctolagus cuniculus, the Ratio IC50 was 0.05. Further, the values for the inhibition in vivo at 10.15 mg/kg in the data set on Rattus norvegicus [9], in the data set with Rattus norvegicus [10] and in the data set on Rattus norvegicus [11] were 19.1%, 33.3% and 19.6%, respectively. In the data set on Mus musculus [12], the inhibition in vivo at 20.3 mg/kg turned out to be 80.7%. Also, the Activity in the data set with Rattus norvegicus [13] is 0.19 mm2.

As for `CC(C)(C)c1cc(/C=C2\SC(N)=NC2=O)cc(C(C)(C)C)c1O` [DARBUFELONE MESYLATE], the IC50 in data set [1] was found to be 0.11 µM; in [2] it was 37.6 µM.

Consider `Cc1ccc2c(c1)/C(=C\c1ccc(S(N)(=O)=O)cc1)C(=O)N2`, for which the 50% inhibitory concentration (IC50) in data set [1], in data set [2] and in data set [3] was above 50 µM throughout.

Consider `NS(=O)(=O)c1ccc(/C=C2/C(=O)Nc3ccccc32)cc1`, for which the IC50 in data set [1], in data set [2] and in data set [3] was above 50 µM each time.
